Structures are written as SMILES. pIC50: −log10 of the molar value.

In general, pIC50 refers to −log10 of the IC50, conventionally taken in molar units.

Test [1] addresses FL hMALT1 enzyme (Homo sapiens (Human), UniProt Q9UDY8). The test can be described thus: MALT1 Protease Assay 2 (Assay 2), higher sensitivity, cleavage of fluorogenic tetrapeptide substrate. To be noted: FL hMALT1 1-10 nM, Ac-LVSR-AMC 100 μM, 0.7 M sodium citrate, 30 min preincubation, 60 min read. It is filed as biochemical. As to the method: MALT1 Protease Assay 2 (Assay 2)
(§1) MALT1 protease activity was assessed in vitro by measuring the cleavage of a fluorogenic tetrapeptide substrate.
For a higher sensitivity assay, commercially available FL hMALT1 enzyme (Abcam, 1-10 nM) was incubated with substrate (Ac-LVSR-AMC, 100 μM) in reaction buffer comprising 50 mM HEPES (pH7.0), 25 mM KCl, 0.1% (v/v) CHAPS, 1 mM TCEP and 0.7 M sodium citrate.
(§2) Test compounds dissolved in DMSO were dispensed into assay plates (384-well, black, shallow ProxiPlates). 7 μl enzyme solution was added and incubated at room temperature for 30 minutes to allow compound binding to occur. 2 μl substrate solution was then added and the fluorescence (excitation 360 nm, emission 460 nm) read every 15 minutes using a suitable plate reader. Final assay DMSO concentration was 1%. Linearity over 60 minutes was confirmed, and assay signal was calculated by subtracting raw counts at time 0 from those at 60 minutes. % inhibition was calculated for each well, using no enzyme for 100% inhibition controls and no compound for 0% inhibition controls. IC50 values were calculated using GraphPad Prism using a 4-parameter non-linear regression curve fit.

In test [2] the target is MALT1-GS-Ub (6-His-hMALT-1 residues 339-715 fused to ubiquitin) (Homo sapiens (Human), UniProt Q9UDY8). The test can be described thus: MALT1 Protease Assay 1 (Assay 1), cleavage of fluorogenic tetrapeptide substrate. The format is biochemical. To be noted: MALT1-GS-Ub 300-600 nM, Ac-LVSR-AMC 100 μM, 30 min preincubation, 60 min read. Here is the method: MALT1 Protease Assay 1 (Assay 1)
Chain of MALT1-GS-Ub (6-His-hMALT-1 residues 339-715 fused to ubiquitin) (Q9UDY8 other isoform, or with tags, fused parts or gaps): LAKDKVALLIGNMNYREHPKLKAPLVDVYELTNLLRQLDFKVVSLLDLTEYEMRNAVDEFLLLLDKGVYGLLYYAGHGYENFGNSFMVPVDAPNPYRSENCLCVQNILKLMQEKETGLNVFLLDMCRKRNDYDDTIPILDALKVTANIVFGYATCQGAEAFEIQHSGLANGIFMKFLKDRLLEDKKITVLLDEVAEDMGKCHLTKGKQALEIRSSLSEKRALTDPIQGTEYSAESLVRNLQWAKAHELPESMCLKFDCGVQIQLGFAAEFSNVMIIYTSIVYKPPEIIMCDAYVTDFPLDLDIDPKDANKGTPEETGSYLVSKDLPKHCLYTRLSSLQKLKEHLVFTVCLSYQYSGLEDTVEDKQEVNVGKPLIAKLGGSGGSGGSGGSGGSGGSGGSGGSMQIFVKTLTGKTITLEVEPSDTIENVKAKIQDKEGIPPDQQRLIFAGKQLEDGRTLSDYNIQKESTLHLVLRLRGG
as §1
A protein (MALT1-GS-Ub) comprising 6-His-hMALT-1 (residues 339-715), fused to ubiquitin with an 8× GGS linker, was expressed in E. coli, and purified using chitin resin to remove contaminants followed by affinity chromatography purification and size-exclusion chromatography, according to standard protocols.
Briefly, MALT1-GS-Ub (300-600 nM) was incubated with substrate (Ac-LVSR-AMC, 100 μM) in reaction buffer comprising 50 mM HEPES (pH7.0), 25 mM KCl, 0.1% (v/v) CHAPS and 1 mM TCEP.
as §2

Chain of FL hMALT1 enzyme (Q9UDY8 whole entry): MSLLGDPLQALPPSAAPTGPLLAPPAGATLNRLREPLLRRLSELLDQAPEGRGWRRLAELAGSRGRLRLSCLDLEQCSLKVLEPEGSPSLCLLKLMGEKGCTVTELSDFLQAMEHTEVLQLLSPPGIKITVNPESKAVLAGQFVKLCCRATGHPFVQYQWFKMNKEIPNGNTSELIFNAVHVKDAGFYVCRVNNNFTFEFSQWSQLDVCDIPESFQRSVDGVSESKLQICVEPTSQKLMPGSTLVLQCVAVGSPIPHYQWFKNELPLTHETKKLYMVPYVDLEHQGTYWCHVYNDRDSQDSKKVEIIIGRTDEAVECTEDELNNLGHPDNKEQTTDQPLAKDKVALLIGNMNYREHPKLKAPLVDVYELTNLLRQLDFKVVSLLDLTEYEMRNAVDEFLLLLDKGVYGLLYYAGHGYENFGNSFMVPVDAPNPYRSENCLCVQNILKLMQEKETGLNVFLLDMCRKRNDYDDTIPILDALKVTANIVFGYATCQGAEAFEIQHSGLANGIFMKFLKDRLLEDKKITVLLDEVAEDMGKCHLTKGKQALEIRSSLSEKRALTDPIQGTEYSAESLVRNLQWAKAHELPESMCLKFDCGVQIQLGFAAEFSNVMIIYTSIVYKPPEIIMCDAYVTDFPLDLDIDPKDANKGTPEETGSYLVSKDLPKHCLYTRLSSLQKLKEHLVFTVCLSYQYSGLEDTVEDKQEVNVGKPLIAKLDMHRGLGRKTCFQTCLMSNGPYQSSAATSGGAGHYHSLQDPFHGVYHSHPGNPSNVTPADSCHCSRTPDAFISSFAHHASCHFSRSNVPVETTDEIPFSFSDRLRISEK

For the compound `Cc1ncc2c(c1C#N)OC(C(F)(F)F)CN2C(=O)Nc1cnc(-n2nccn2)c(C#N)c1` (single isomer, unassigned) [Example 62, 8-Cyano-N-(5-cyano-6-(2H-1,2,3-triazol-2-yl)pyridin-3-yl)-7-methyl-2-(trifluoromethyl)-2,3-dihydro-4H-pyrido[4,3-b][1,4]oxazine-4-carboxamide], in test [1], the pIC50 was 5.19.

Take `COc1cccc2c1CCCN2C(=O)Nc1cnc(-n2nccn2)c(Cl)c1` [Example 3, N-(5-Chloro-6-(2H-1,2,3-triazol-2-yl)pyridin-3-yl)-5-methoxy-3,4-dihydroquinoline-1 (2H)-carboxamide]: the pIC50 in test [2] was 5.52; in test [1], 6.21.

For the compound `O=C(Nc1cnc(-n2nccn2)c(Cl)c1)N1CC(C(F)(F)F)Nc2c(Br)cncc21` (centres unmarked) [Example 37, 8-Bromo-N-(5-chloro-6-(2H-1,2,3-triazol-2-yl)pyridin-3-yl)-2-(trifluoromethyl)-2,3-dihydropyrido[3,4-b]pyrazine-4 (1H)-carboxamide], the results for the pIC50 in test [2] and in test [1] were 5.41 and 6.27, respectively.

With `O=C(Nc1cnc(-n2nccn2)c(Cl)c1)N1CC(C(F)(F)F)Oc2c(Br)cncc21` (single isomer, unassigned) [Example 39, 8-Bromo-N-(5-chloro-6-(2H-1,2,3-triazol-2-yl)pyridin-3-yl)-2-(trifluoromethyl)-2,3-dihydro-4H-pyrido[4,3-b][1,4]oxazine-4-carboxamide], the negative logarithm of the IC50 (pIC50) in test [2] is 5.24; in test [1], 5.92.

Regarding `CC1CN(C(=O)Nc2cnc(-n3nccn3)c(Cl)c2)c2cncc(Br)c2O1` (single isomer, unassigned) [Example 45, 8-Bromo-N-(5-chloro-6-(2H-1,2,3-triazol-2-yl)pyridin-3-yl)-2-methyl-2,3-dihydro-4H-pyrido[4,3-b][1,4]oxazine-4-carboxamide], in test [1], the negative-log IC50 (pIC50) was 6.70.

With `COc1cncc2c1OC(C(F)(F)F)CN2C(=O)Nc1cnc(-n2nccn2)c(Cl)c1` (single isomer, unassigned) [Example 56, N-(5-Chloro-6-(2H-1,2,3-triazol-2-yl)pyridin-3-yl)-8-methoxy-2-(trifluoromethyl)-2,3-dihydro-4H-pyrido[4,3-b][1,4]oxazine-4-carboxamide], the pIC50 in test [1] is 5.29.

Consider `O=C(Nc1cnc(-n2nccn2)c(Cl)c1)N1CCCc2c(Br)cccc21` [Example 1, 5-Bromo-N-(5-chloro-6-(2H-1,2,3-triazol-2-yl)pyridin-3-yl)-3,4-dihydroquinoline-1 (2H)-carboxamide], for which the pIC50 in test [2] was 5.35.

In test [1], `O=C(Nc1cnc(-n2nccn2)c(Cl)c1)N1CC(C2CC2)Oc2c(Br)cncc21` (single isomer, unassigned) [Example 50, 8-Bromo-N-(5-chloro-6-(2H-1,2,3-triazol-2-yl)pyridin-3-yl)-2-cyclopropyl-2,3-dihydro-4H-pyrido[4,3-b][1,4]oxazine-4-carboxamide] had a pIC50 of 6.62.

With `O=C(Nc1cnc(-n2nccn2)c(C(F)(F)F)c1)N1CCCc2c(Br)cccc21` [Example 2, N-(6-(2H-1,2,3-Triazol-2-yl)-5-(trifluoromethyl)pyridin-3-yl)-5-bromo-3,4-dihydroquinoline-1 (2H)-carboxamide], the negative logarithm of the IC50 (pIC50) in test [2] is 5.49.

Take `Cc1ncc2c(c1Br)OC(C(F)(F)F)CN2C(=O)Nc1cnc(-n2nccn2)c(Cl)c1` (single isomer, unassigned) [Example 42, 8-Bromo-N-(5-chloro-6-(2H-1,2,3-triazol-2-yl)pyridin-3-yl)-7-methyl-2-(trifluoromethyl)-2,3-dihydro-4H-pyrido[4,3-b][1,4]oxazine-4-carboxamide]: in test [1], the pIC50 was 5.47.

Take `O=C(Nc1cnc(-n2nccn2)c(Cl)c1)N1CC(C2CC2)Oc2c(Br)cncc21` (single isomer, unassigned) [Example 51, 8-Bromo-N-(5-chloro-6-(2H-1,2,3-triazol-2-yl)pyridin-3-yl)-2-cyclopropyl-2,3-dihydro-4H-pyrido[4,3-b][1,4]oxazine-4-carboxamide]: the negative-log IC50 (pIC50) in test [1] is 6.60.

In test [1], `N#CC1Cc2c(Br)cncc2N(C(=O)Nc2cnc(-n3nccn3)c(Cl)c2)C1` (centres unmarked) [Example 58, 5-Bromo-N-(5-chloro-6-(2H-1,2,3-triazol-2-yl)pyridin-3-yl)-3-cyano-3,4-dihydro-1,7-naphthyridine-1 (2H)-carboxamide] showed a pIC50 of 5.89.

`Cc1ncc2c(c1C#N)OC(C(F)(F)F)CN2C(=O)Nc1cnc(-n2nccn2)c(C(F)(F)F)c1` (single isomer, unassigned) [Example 64, N-(6-(2H-1,2,3-triazol-2-yl)-5-(trifluoromethyl)pyridin-3-yl)-8-cyano-7-methyl-2-(trifluoromethyl)-2,3-dihydro-4H-pyrido[4,3-b][1,4]oxazine-4-carboxamide] had a negative logarithm of the IC50 (pIC50) in test [1] of 5.67.

In test [1], `Cc1ncc2c(c1C#N)OC(C(F)(F)F)CN2C(=O)Nc1cnc(-n2nccn2)c(Cl)c1` (single isomer, unassigned) [Example 52, N-(5-Chloro-6-(2H-1,2,3-triazol-2-yl)pyridin-3-yl)-8-cyano-7-methyl-2-(trifluoromethyl)-2,3-dihydro-4H-pyrido[4,3-b][1,4]oxazine-4-carboxamide] had a negative logarithm of the IC50 (pIC50) of 5.12.

In test [1], `Cc1ncc2c(c1C#N)OC(C(F)(F)F)CN2C(=O)Nc1cnc(C(=O)N(C)C2CC2)c(C(F)F)c1` (single isomer, unassigned) [Example 66, 8-Cyano-N-(6-(cyclopropyl(methyl)carbamoyl)-5-(difluoromethyl)pyridin-3-yl)-7-methyl-2-(trifluoromethyl)-2,3-dihydro-4H-pyrido[4,3-b][1,4]oxazine-4-carboxamide] gave a negative logarithm of the IC50 (pIC50) of 5.04.

The compound `Cc1ncc2c(c1C#N)OC(C(F)(F)F)CN2C(=O)Nc1cnc(-n2nccn2)c(C(F)(F)F)c1` (single isomer, unassigned) [Example 65, N-(6-(2H-1,2,3-triazol-2-yl)-5-(trifluoromethyl)pyridin-3-yl)-8-cyano-7-methyl-2-(trifluoromethyl)-2,3-dihydro-4H-pyrido[4,3-b][1,4]oxazine-4-carboxamide] had a pIC50 in test [1] of 7.77.

With `CC1CN(C(=O)Nc2cnc(-n3nccn3)c(Cl)c2)c2cncc(Br)c2O1` (single isomer, unassigned) [Example 44, 8-Bromo-N-(5-chloro-6-(2H-1,2,3-triazol-2-yl)pyridin-3-yl)-2-methyl-2,3-dihydro-4H-pyrido[4,3-b][1,4]oxazine-4-carboxamide], the negative-log IC50 (pIC50) in test [1] was 6.48.

`Cc1ncc2c(c1C#N)OC(C(F)(F)F)CN2C(=O)Nc1cnc(C(=O)N(C)C2CC2)c(C(F)F)c1` (single isomer, unassigned) [Example 67, 8-Cyano-N-(6-(cyclopropyl(methyl)carbamoyl)-5-(difluoromethyl)pyridin-3-yl)-7-methyl-2-(trifluoromethyl)-2,3-dihydro-4H-pyrido[4,3-b][1,4]oxazine-4-carboxamide] had a pIC50 in test [1] of 6.84.

With `Cc1ncc2c(c1C#N)OC(C(F)(F)F)CN2C(=O)Nc1cnc(-n2nccn2)c(C#N)c1` (single isomer, unassigned) [Example 63, 8-Cyano-N-(5-cyano-6-(2H-1,2,3-triazol-2-yl)pyridin-3-yl)-7-methyl-2-(trifluoromethyl)-2,3-dihydro-4H-pyrido[4,3-b][1,4]oxazine-4-carboxamide], in test [1], the pIC50 was 6.98.

Regarding `COc1cncc2c1OC(C(F)(F)F)CN2C(=O)Nc1cnc(-n2nccn2)c(Cl)c1` (single isomer, unassigned) [Example 57, N-(5-Chloro-6-(2H-1,2,3-triazol-2-yl)pyridin-3-yl)-8-methoxy-2-(trifluoromethyl)-2,3-dihydro-4H-pyrido[4,3-b][1,4]oxazine-4-carboxamide], in test [1], the pIC50 is 6.77.

In test [1], `Cc1ncc2c(c1C#N)OC(C(F)(F)F)CN2C(=O)Nc1cnc(OC(F)F)c(Cl)c1` (single isomer, unassigned) [Example 60, N-(5-Chloro-6-(difluoromethoxy)pyridin-3-yl)-8-cyano-7-methyl-2-(trifluoromethyl)-2,3-dihydro-4H-pyrido[4,3-b][1,4]oxazine-4-carboxamide] gave a negative logarithm of the IC50 (pIC50) of 5.42.

The compound `N#Cc1cncc2c1OC(C(F)(F)F)CN2C(=O)Nc1cnc(-n2nccn2)c(Cl)c1` (single isomer, unassigned) [Example 54, N-(5-Chloro-6-(2H-1,2,3-triazol-2-yl)pyridin-3-yl)-8-cyano-2-(trifluoromethyl)-2,3-dihydro-4H-pyrido[4,3-b][1,4]oxazine-4-carboxamide] had a pIC50 in test [1] of 5.09.

The compound `Cc1ncc2c(c1C#N)OC(C(F)(F)F)CN2C(=O)Nc1ccnc(C(F)(F)F)c1` (centres unmarked) [Example 59, 8-Cyano-7-methyl-2-(trifluoromethyl)-N-(2-(trifluoromethyl)pyridin-4-yl)-2,3-dihydro-4H-pyrido[4,3-b][1,4]oxazine-4-carboxamide] gave a pIC50 in test [1] of 6.09.

The record behind these values is patent US20250136577A1, “HETEROCYCLIC DERIVATIVES AS MALT1 INHIBITORS” (C4X Discovery Limited, priority 2022, published 2025).
